Source: patent US20070128217A1 (priority 2003, published 2007)

How the values were obtained:
[1] = system: rabbit serum obtained by immunizing a rabbit with the SARS-CoV strain Frankfurt 1; type: binding; set-up: Binding of a rabbit serum to linear peptides / Binding of a rabbit serum to looped peptides / Rabbit serum linear peptides / Rabbit serum looped peptides / Binding of a rabbit serum to linear peptides of protein N of SARS-CoV Urbani (Rabbit serum linear peptides) / Binding of a rabbit serum to looped/cyclic peptides of protein N of SARS-CoV Urbani (Rabbit serum looped peptides): unit not given here
[2] = system: recombinant human anti-SARS-CoV antibody 03-018; type: binding; set-up: Binding of antibody 03-018 to linear peptides of the N protein of SARS-CoV Urbani / Binding of antibody 03-018 to looped/cyclic peptides of the N protein of SARS-CoV Urbani: unit not given here
[3] = system: control sera (pooled serum of ten healthy LUMC hospital workers; commercial negative donor pooled serum from the Dutch bloodbank); type: binding, human; set-up: Binding of Control serum LUMC to linear peptides / Binding of Control serum Blood-bank to linear peptides / Binding of Control serum LUMC to looped peptides / Binding of Control Serum Blood-Bank to Looped peptides / Binding of Control serum LUMC to linear peptides of the protein M of SARS-CoV Urbani / Binding of Control serum Blood-bank to linear peptides of the protein M of SARS-CoV Urbani / Binding of Control serum LUMC to looped peptides of the protein M of SARS-CoV Urbani / Binding of Control Serum Blood-Bank to Looped peptides of the protein M of SARS-CoV Urbani: unit not given here
[4] = system: antibodies in sera from SARS patients (sera 1a, 1b, 2, 6, 37, 62, London, SARS-yellow, SARS-green); type: binding, human; set-up: Binding of serum 6 to linear peptides of protein X1 of SARS-CoV Urbani / Binding of serum 37 to linear peptides of protein X1 of SARS-CoV Urbani / Binding of serum 6 to looped/cyclic peptide (PEPSCAN-ELISA) / Binding of serum 37 to looped/cyclic peptide (PEPSCAN-ELISA) / Binding of serum 37 to looped/cyclic peptides of protein X1 of SARS-CoV Urbani / Binding of serum 6 to linear peptides of protein X2 / Binding of serum 37 to linear peptides of protein X2 / Binding of serum 37 to looped/cyclic peptides of protein X2 of SARS-CoV Urbani / Binding of serum 6 to linear peptides of protein M of SARS-CoV Urbani / Binding of serum 37 to linear peptides of protein M of SARS-CoV Urbani / Binding of serum 6 to looped/cyclic peptides of protein M of SARS-CoV Urbani / Binding of serum 37 to looped/cyclic peptides of protein M of SARS-CoV Urbani / Binding of serum 6 to linear peptides of protein X3 of SARS-CoV Urbani / Binding of serum 37 to linear peptides of protein X3 of SARS-CoV Urbani / Binding of serum 37 to looped/cyclic peptides of protein X3 of SARS-CoV Urbani / Binding of serum 6 to linear peptides of protein X4 of SARS-CoV Urbani / Binding of serum 37 to linear peptides of protein X4 of SARS-CoV Urbani / Binding of serum 37 to looped/cyclic peptides of protein X4 of SARS-CoV Urbani / Binding of serum 6 to linear peptides of protein X5 of SARS-CoV Urbani / Binding of serum 37 to linear peptides of protein X5 of SARS-CoV Urbani / Binding of serum 37 to looped/cyclic peptides of protein X5 of SARS-CoV Urbani / Binding of serum 6 to linear peptides of protein N of SARS-CoV Urbani / Binding of serum 37 to linear peptides of protein N of SARS-CoV Urbani / Binding of serum 6 to linear peptide (PEPSCAN-ELISA) / Binding of serum 1a to looped/cyclic peptides of protein N of SARS-CoV Urbani / Binding of serum 1b to looped/cyclic peptides of protein N of SARS-CoV Urbani / Binding of serum 2 to looped/cyclic peptides of protein N of SARS-CoV Urbani / Binding of serum 6 to looped/cyclic peptides of protein N of SARS-CoV Urbani / Binding of serum 37 to looped/cyclic peptides of protein N of SARS-CoV Urbani / Binding of serum 62 to looped/cyclic peptides of protein N of SARS-CoV Urbani / Binding of serum London to looped/cyclic peptides of protein N of SARS-CoV Urbani / Binding of serum SARS-green to looped/cyclic peptides of protein N of SARS-CoV Urbani: unit not given here

Row | Sequence | Binding of a rabbit serum to linear peptides of protein N of SARS-CoV Urbani (Rabbit serum linear peptides) [1] | Binding of a rabbit serum to looped/cyclic peptides of protein N of SARS-CoV Urbani (Rabbit serum looped peptides) [1] | Binding of antibody 03-018 to linear peptides of the N protein of SARS-CoV Urbani [2] | Binding of antibody 03-018 to looped/cyclic peptides of the N protein of SARS-CoV Urbani [2] | Binding of Control Serum Blood-Bank to Looped peptides [3] | Binding of Control serum Blood-bank to linear peptides [3] | Binding of Control serum LUMC to linear peptides [3] | Binding of Control serum LUMC to looped peptides [3] | Binding of serum 1a to linear peptides of protein N of SARS-CoV Urbani [4] | Binding of serum 1a to looped/cyclic peptides of protein N of SARS-CoV Urbani [4] | Binding of serum 1b to linear peptides of protein N of SARS-CoV Urbani [4] | Binding of serum 1b to looped/cyclic peptides of protein N of SARS-CoV Urbani [4] | Binding of serum 2 to linear peptides of protein N of SARS-CoV Urbani [4] | Binding of serum 2 to looped/cyclic peptides of protein N of SARS-CoV Urbani [4] | Binding of serum 6 to linear peptides of protein N of SARS-CoV Urbani [4] | Binding of serum 6 to looped/cyclic peptides of protein N of SARS-CoV Urbani [4] | Binding of serum 37 to linear peptides of protein N of SARS-CoV Urbani [4] | Binding of serum 37 to looped/cyclic peptides of protein N of SARS-CoV Urbani [4] | Binding of serum 62 to linear peptides of protein N of SARS-CoV Urbani [4] | Binding of serum 62 to looped/cyclic peptides of protein N of SARS-CoV Urbani [4] | also measured
1 | ASWFTALTQHGKEEL | 0.1 | 0.1 | 0.1 | 0.2 | 0.5 | 0.7 | 0.5 | 0.4 | 0.2 | 0.2 | 0.1 | 0.1 | 0.1 | 0.2 | 0.1 | 0.1 | 0.9 | 0.4 | 0.6 | 0.3 | Binding of serum London to linear peptides of protein N of SARS-CoV Urbani [4]: 0.5; Binding of serum London to looped/cyclic peptides of protein N of SARS-CoV Urbani [4]: 0.3; Binding of serum SARS-green to linear peptides of protein N of SARS-CoV Urbani [4]: 0.4; Binding of serum SARS-green to looped/cyclic peptides of protein N of SARS-CoV Urbani [4]: 0.2; Binding of serum SARS-yellow to linear peptides of protein N of SARS-CoV Urbani [4]: 0.4; Binding of serum SARS-yellow to looped/cyclic peptides of protein N of SARS-CoV Urbani [4]: 0.1
2 | ATEGALNTPKDHIGT | 0.1 | 0.1 | 0.1 | 0.2 | 0.5 | 0.8 | 0.7 | 0.5 | 0.2 | 0.3 | 0.1 | 0.2 | 0.3 | 0.4 | 0.1 | 0.2 | 0.7 | 0.4 | 0.7 | 0.3 | Binding of serum London to linear peptides of protein N of SARS-CoV Urbani [4]: 0.5; Binding of serum London to looped/cyclic peptides of protein N of SARS-CoV Urbani [4]: 0.3; Binding of serum SARS-green to linear peptides of protein N of SARS-CoV Urbani [4]: 0.4; Binding of serum SARS-green to looped/cyclic peptides of protein N of SARS-CoV Urbani [4]: 0.3; Binding of serum SARS-yellow to linear peptides of protein N of SARS-CoV Urbani [4]: 0.6; Binding of serum SARS-yellow to looped/cyclic peptides of protein N of SARS-CoV Urbani [4]: 0.2
3 | ATRRVRGGDGKMKEL | 0.3 | 0.3 | 0.1 | 0.2 | 0.5 | 0.7 | 0.7 | 0.5 | 0.3 | 0.2 | 0.1 | 0.1 | 0.3 | 0.2 | 0.3 | 0.1 | 0.8 | 0.4 | 0.7 | 0.3 | Binding of serum London to linear peptides of protein N of SARS-CoV Urbani [4]: 0.5; Binding of serum London to looped/cyclic peptides of protein N of SARS-CoV Urbani [4]: 0.3; Binding of serum SARS-green to linear peptides of protein N of SARS-CoV Urbani [4]: 0.3; Binding of serum SARS-green to looped/cyclic peptides of protein N of SARS-CoV Urbani [4]: 0.1; Binding of serum SARS-yellow to linear peptides of protein N of SARS-CoV Urbani [4]: 0.6; Binding of serum SARS-yellow to looped/cyclic peptides of protein N of SARS-CoV Urbani [4]: 0.4
